Assay results from ChEMBL document CHEMBL1201862, “PubChem BioAssay data set” (2004).
The source made the active and inactive calls.

Experiments:
[1] = target: T1, Small ubiquitin-related modifier 1 (Homo sapiens, UniProt P63165); assay: SUMO1 protein interaction blockers, potency – biochemical, fluorescence polarization, uHTS hits, dose response (AID 624382); type: functional; settings: read-out: IC50_Mean
[2] = target: T2, Probable nicotinate-nucleotide adenylyltransferase (Staphylococcus aureus (strain N315), UniProt P65502); type: functional, Staphylococcus aureus subsp. aureus N315;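 as to IC50 Mean: confirmatory dose-response retesting of NadD inhibitor hits first found in an ultra-high-throughput screen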
Beta-galactosidase = Beta-galactosidase (Escherichia coli, UniProt Q8VNN2); assay: detection-enzyme interference by beta-gal modulators – biochemical, E. coli enzyme, set 3, artefact control for CCR6 antagonist project, dose response (AID 504712); type: functional
[3] = target: T3, Small ubiquitin-related modifier 2 (Homo sapiens, UniProt P61956); assay: SUMO2 binding disruption by SUMO1 hits – biochemical, FRET, human SUMO2, uHTS hits, selectivity assay for SUMO1 interaction inhibitor project, dose response (AID 624384); type: functional; settings: read-out: IC50_Mean
[4] = target: T1, Small ubiquitin-related modifier 1; assay: SUMO1 protein-protein binding blockers, potency – biochemical, FRET, dose response (AID 624383); type: functional; settings: read-out: IC50_Mean
[5] = target: T3, Small ubiquitin-related modifier 2; assay: disruption of SUMO2 interaction with SIM peptide – biochemical, fluorescence polarization, uHTS hits, selectivity assay for SUMO1 interaction inhibitor project, dose response (AID 624385); type: functional; settings: read-out: IC50_Mean
[6] = target: DNA (cytosine-5)-methyltransferase 1 (Homo sapiens, UniProt P26358); assay: inhibition of DNA methylation by DNMT1 – biochemical, fluorescent molecular beacon, confirmation (AID 602386); type: functional
[7] = target: T2, Probable nicotinate-nucleotide adenylyltransferase; type: functional, Staphylococcus aureus subsp. aureus N315; settings: read-out: IC50_Mean
[8] = target: Voltage-dependent T-type calcium channel subunit alpha-1H (Homo sapiens, UniProt O95180); assay: human CACNA1H calcium influx blockade – cell-based, synthetic library set 1, calcium flux (AID 493022); type: functional
HEK293 [9] = assay: cells; type: functional, cell-based; settings: Homo sapiens
HEK293 [10] = assay: NOD2 signaling inhibitors in MDP-stimulated cells, cell-based, uHTS, luminescence (AID 2001); type: functional; settings: Homo sapiens
Protein RecA = target: T4, Protein RecA (Mycobacterium tuberculosis, UniProt P9WHJ3); assay: Fluorescence Cell-Free Homogeneous Dose Retest to Identify Inhibitors of RecA-Intein Splicing Activity. [Related pubchem assays (depositor defined):AID2097, AID2223, AID489010, AID492950]; type: functional
T4 sequence (P9WHJ3 whole entry): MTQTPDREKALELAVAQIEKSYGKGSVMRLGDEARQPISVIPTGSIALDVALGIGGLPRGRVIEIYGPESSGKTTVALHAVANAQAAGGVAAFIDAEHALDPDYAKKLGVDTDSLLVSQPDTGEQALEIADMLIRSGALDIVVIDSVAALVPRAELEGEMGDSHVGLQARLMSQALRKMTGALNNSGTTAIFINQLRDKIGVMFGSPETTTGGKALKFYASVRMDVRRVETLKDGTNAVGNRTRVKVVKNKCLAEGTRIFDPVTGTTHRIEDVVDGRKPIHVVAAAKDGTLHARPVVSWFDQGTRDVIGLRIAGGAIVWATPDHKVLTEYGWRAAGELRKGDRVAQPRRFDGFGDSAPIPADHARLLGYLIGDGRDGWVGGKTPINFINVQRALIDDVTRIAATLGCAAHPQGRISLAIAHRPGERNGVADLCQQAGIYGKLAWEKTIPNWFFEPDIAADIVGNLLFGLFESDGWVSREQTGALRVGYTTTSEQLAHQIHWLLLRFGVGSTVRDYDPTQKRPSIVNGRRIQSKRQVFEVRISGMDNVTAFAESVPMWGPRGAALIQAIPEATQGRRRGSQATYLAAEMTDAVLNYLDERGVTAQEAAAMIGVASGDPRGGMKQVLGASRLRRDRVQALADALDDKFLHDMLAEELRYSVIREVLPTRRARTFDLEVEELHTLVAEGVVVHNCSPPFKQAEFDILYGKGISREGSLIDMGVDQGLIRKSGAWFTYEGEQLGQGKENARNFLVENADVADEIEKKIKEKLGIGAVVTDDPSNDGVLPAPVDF

HEK293 [11] = assay: cells; type: functional, cell-based; settings: Homo sapiens; remark: listed apart in the source
HEK293 [12] = assay: inhibition of NOD1-driven NF-kB reporter – cell-based, luminescence, uHTS, primary screen (AID 1578); type: functional; settings: Homo sapiens
[13] = target: Nucleotide-binding oligomerization domain-containing protein 2 (Homo sapiens, UniProt Q9HC29); assay: inhibition of NOD2-driven NF-kB reporter – cell-based, luminescence, uHTS, HEK293 (AID 1566); type: functional
[14] = target: T5, Replicative DNA helicase DnaB (Mycobacterium tuberculosis, UniProt P9WMR3); assay: DnaB intein splicing inhibitors, dose response, biochemical, cell-free fluorescence (AID 449749); type: functional
T5 sequence (P9WMR3 whole entry): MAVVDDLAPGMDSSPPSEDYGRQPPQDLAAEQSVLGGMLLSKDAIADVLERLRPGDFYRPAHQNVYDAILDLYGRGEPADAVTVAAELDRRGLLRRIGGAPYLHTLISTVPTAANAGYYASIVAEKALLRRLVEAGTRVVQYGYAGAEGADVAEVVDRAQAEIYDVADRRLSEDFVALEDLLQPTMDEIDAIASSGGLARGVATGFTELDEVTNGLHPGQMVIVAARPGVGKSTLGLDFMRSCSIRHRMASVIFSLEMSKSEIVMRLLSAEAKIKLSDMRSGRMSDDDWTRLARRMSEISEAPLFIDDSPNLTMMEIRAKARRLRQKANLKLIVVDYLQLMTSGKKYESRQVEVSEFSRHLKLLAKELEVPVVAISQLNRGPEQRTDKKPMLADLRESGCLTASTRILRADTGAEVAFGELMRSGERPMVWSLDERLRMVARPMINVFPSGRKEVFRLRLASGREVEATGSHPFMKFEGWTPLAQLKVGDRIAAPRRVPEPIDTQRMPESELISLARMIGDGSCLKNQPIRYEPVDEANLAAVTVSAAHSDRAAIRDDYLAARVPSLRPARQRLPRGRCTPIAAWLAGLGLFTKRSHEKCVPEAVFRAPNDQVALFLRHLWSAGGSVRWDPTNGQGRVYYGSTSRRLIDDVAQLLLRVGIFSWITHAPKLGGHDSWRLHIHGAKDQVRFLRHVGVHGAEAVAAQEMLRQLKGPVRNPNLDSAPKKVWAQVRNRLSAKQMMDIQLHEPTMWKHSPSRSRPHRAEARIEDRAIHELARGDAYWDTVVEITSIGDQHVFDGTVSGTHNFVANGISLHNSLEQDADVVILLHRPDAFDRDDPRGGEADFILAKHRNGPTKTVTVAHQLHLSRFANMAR

[15] = target: Sphingosine 1-phosphate receptor 4 (Homo sapiens, UniProt O95977); assay: potency of S1P4 activators – cell-based, fluorescence, synthesized compounds, late-stage follow-up (AID 463107); type: functional
cells = type: functional
[16] = Trypanosoma cruzi growth suppression in host cells – NIH3T3 host cells, beta-gal luminescence, confirmation (AID 2044); type: functional, cell-based;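 also: intracellular parasites grown in NIH/3T3 mouse fibroblasts as host cells; luminescent beta-galactosidase reporter signal from transgenic T. cruzi replicating inside host cells; inhibitors lower the luminescence signal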
[17] = Vero E6 cell cytotoxicity, dose response, cytotoxicity control for non-replicating M. tuberculosis project, secondary assay (AID 492998); type: functional, VeroE6; settings: Vero C1008
INS1 = assay: INS-1E survival protection against cytokine death – cell-based, luminescence, retest, dose response (AID 449756); type: functional; settings: Rattus norvegicus;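 also: cell death triggered by IL-1 beta plus TNF-alpha plus IFN-gamma mixture; protective hits raise ATP signal compared with cytokine alone wells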
[18] = NIH3T3 cell viability loss – ATP luminescence, mouse fibroblasts, counter-screen, dose response (AID 2010); type: functional, cell-based;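 also: cells exposed to compound for about 90 hours before reading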
[19] = HepG2 cell cytotoxicity, dose response, cytotoxicity control for non-replicating M. tuberculosis project (AID 489018); type: functional; settings: Mycobacterium tuberculosis
[20] = THP-1 cell cytotoxicity, dose response, cytotoxicity control for non-replicating M. tuberculosis project (AID 489025); type: functional
Hexokinase = Hexokinase (Trypanosoma brucei, UniProt Q38C41); assay: Confirmation assay for inhibitors of Trypanosoma brucei hexokinase 1-Analogue-first series. [Related pubchem assays (depositor defined):AID1430, AID1632, AID2516, AID2560, AID2579, AID2600, AID449725, AID492951]; type: functional
[21] = target: Glutathione S-transferase omega-1 (Homo sapiens, UniProt P78417); assay: IC50 of human GSTO1 blockade by gel ABPP – biochemical, SE-Rh probe, in-gel fluorescence, powder samples, set 2, late-stage follow-up (AID 463142); type: functional
Coagulation factor XII = target: T6, Coagulation factor XII (Homo sapiens, UniProt P00748); assay: activated coagulation factor XII inhibitor potency, concentration-effect curve, cell-free (AID 716); type: functional
T6 sequence (P00748 whole entry): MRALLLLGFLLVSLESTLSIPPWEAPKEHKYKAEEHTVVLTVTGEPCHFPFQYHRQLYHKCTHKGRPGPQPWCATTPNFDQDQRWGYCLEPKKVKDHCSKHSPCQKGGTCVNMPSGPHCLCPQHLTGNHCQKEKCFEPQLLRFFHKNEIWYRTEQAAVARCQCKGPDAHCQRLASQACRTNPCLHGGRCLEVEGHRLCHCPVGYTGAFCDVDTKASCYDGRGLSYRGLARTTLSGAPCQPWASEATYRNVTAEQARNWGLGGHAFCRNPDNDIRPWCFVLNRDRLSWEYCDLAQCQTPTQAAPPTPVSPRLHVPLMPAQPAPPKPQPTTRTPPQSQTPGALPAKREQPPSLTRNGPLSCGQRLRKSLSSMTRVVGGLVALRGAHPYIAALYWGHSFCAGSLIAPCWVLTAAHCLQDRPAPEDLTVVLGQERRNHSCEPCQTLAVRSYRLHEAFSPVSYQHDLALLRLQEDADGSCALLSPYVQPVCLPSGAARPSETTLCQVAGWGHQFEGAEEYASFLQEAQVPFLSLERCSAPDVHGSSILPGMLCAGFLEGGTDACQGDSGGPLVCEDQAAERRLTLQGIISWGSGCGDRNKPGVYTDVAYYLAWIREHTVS

[22] = target: Complement C1s subcomponent (Homo sapiens, UniProt P09871); assay: Complement C1s ELISA. [Related pubchem assays: 538, 787 ]; type: functional
[23] = target: DNA dC->dU-editing enzyme APOBEC-3G (Homo sapiens, UniProt Q9HC16); assay: Dose Response confirmation of small molecule APOBEC3G DNA Deaminase Inhibitors via a fluorescence-based single-stranded DNA deaminase assay. [Related pubchem assays (depositor defined):AID493012, AID493028]; type: functional
[24] = target: DNA dC->dU-editing enzyme APOBEC-3A (Homo sapiens, UniProt P31941); assay: A3A deaminase inhibition for selectivity – biochemical, dose response (AID 504722); type: functional
DNA dC->dU-editing enzyme APOBEC-3A, sequence (P31941 whole entry): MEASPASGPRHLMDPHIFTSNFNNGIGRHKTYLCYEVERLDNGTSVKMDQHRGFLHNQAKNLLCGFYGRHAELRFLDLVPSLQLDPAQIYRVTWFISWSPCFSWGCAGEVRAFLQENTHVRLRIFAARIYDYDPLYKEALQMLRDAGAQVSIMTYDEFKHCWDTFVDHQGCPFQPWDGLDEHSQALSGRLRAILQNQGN

T3 sequence (P61956 whole entry): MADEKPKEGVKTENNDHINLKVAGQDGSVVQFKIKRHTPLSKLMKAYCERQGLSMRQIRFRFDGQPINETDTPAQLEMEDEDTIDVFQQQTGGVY
T1 sequence (P63165 whole entry): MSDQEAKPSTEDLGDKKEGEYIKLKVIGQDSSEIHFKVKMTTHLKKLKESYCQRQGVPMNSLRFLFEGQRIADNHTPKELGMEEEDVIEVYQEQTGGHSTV
T2 sequence (P65502 whole entry): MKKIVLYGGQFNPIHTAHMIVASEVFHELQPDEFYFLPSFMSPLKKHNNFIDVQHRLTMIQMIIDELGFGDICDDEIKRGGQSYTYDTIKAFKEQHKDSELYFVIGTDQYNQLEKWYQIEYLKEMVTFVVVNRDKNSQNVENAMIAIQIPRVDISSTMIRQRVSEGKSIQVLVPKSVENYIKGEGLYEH
Hexokinase, sequence (Q38C41 whole entry): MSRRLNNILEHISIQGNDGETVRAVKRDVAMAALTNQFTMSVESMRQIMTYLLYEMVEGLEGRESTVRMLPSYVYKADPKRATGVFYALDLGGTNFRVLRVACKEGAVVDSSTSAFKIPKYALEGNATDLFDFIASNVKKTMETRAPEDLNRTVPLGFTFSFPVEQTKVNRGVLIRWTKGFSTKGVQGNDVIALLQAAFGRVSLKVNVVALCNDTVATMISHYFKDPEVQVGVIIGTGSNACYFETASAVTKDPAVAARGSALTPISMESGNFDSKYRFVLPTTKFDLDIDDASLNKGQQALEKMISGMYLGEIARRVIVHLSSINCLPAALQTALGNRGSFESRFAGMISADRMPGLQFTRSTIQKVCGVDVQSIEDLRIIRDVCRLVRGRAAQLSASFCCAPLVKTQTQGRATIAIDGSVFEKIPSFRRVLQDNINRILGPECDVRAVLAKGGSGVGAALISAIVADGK
Beta-galactosidase, sequence (Q8VNN2 whole entry): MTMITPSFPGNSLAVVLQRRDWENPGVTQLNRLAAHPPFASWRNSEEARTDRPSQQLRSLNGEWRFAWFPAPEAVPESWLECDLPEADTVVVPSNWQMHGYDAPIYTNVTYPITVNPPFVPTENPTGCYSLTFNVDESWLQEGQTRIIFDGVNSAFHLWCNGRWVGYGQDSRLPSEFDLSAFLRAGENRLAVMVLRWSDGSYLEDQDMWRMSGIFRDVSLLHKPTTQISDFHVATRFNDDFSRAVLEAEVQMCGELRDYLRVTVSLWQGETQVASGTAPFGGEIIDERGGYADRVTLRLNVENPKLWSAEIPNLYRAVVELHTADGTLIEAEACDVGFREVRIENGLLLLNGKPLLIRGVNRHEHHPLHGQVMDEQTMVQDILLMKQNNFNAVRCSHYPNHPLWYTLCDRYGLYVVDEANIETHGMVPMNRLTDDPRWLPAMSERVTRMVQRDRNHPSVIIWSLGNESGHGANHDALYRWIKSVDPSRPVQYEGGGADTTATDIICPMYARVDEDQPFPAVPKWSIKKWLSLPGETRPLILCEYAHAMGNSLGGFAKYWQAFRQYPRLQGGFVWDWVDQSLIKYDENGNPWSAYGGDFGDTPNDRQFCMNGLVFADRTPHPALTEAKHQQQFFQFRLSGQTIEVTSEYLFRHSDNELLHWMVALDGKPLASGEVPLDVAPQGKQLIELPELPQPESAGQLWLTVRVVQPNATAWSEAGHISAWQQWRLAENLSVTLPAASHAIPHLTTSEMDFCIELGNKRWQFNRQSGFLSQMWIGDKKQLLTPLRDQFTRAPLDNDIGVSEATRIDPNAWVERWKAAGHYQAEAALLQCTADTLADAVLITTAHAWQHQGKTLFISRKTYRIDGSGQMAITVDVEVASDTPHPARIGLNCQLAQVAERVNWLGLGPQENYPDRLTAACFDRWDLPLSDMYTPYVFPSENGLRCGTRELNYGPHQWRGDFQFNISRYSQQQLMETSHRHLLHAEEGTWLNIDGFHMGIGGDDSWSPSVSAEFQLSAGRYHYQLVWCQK
Sphingosine 1-phosphate receptor 4, sequence (O95977 whole entry): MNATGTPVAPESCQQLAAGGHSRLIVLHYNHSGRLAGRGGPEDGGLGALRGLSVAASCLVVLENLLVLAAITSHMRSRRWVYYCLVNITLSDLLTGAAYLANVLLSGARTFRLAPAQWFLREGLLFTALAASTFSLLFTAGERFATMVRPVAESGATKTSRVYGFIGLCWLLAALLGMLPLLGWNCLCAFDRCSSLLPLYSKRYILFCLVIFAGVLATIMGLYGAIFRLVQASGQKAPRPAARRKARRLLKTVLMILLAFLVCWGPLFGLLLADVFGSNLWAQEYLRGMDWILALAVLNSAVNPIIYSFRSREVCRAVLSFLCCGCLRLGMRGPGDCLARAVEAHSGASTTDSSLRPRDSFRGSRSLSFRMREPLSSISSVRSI
Voltage-dependent T-type calcium channel subunit alpha-1H, sequence (O95180 whole entry): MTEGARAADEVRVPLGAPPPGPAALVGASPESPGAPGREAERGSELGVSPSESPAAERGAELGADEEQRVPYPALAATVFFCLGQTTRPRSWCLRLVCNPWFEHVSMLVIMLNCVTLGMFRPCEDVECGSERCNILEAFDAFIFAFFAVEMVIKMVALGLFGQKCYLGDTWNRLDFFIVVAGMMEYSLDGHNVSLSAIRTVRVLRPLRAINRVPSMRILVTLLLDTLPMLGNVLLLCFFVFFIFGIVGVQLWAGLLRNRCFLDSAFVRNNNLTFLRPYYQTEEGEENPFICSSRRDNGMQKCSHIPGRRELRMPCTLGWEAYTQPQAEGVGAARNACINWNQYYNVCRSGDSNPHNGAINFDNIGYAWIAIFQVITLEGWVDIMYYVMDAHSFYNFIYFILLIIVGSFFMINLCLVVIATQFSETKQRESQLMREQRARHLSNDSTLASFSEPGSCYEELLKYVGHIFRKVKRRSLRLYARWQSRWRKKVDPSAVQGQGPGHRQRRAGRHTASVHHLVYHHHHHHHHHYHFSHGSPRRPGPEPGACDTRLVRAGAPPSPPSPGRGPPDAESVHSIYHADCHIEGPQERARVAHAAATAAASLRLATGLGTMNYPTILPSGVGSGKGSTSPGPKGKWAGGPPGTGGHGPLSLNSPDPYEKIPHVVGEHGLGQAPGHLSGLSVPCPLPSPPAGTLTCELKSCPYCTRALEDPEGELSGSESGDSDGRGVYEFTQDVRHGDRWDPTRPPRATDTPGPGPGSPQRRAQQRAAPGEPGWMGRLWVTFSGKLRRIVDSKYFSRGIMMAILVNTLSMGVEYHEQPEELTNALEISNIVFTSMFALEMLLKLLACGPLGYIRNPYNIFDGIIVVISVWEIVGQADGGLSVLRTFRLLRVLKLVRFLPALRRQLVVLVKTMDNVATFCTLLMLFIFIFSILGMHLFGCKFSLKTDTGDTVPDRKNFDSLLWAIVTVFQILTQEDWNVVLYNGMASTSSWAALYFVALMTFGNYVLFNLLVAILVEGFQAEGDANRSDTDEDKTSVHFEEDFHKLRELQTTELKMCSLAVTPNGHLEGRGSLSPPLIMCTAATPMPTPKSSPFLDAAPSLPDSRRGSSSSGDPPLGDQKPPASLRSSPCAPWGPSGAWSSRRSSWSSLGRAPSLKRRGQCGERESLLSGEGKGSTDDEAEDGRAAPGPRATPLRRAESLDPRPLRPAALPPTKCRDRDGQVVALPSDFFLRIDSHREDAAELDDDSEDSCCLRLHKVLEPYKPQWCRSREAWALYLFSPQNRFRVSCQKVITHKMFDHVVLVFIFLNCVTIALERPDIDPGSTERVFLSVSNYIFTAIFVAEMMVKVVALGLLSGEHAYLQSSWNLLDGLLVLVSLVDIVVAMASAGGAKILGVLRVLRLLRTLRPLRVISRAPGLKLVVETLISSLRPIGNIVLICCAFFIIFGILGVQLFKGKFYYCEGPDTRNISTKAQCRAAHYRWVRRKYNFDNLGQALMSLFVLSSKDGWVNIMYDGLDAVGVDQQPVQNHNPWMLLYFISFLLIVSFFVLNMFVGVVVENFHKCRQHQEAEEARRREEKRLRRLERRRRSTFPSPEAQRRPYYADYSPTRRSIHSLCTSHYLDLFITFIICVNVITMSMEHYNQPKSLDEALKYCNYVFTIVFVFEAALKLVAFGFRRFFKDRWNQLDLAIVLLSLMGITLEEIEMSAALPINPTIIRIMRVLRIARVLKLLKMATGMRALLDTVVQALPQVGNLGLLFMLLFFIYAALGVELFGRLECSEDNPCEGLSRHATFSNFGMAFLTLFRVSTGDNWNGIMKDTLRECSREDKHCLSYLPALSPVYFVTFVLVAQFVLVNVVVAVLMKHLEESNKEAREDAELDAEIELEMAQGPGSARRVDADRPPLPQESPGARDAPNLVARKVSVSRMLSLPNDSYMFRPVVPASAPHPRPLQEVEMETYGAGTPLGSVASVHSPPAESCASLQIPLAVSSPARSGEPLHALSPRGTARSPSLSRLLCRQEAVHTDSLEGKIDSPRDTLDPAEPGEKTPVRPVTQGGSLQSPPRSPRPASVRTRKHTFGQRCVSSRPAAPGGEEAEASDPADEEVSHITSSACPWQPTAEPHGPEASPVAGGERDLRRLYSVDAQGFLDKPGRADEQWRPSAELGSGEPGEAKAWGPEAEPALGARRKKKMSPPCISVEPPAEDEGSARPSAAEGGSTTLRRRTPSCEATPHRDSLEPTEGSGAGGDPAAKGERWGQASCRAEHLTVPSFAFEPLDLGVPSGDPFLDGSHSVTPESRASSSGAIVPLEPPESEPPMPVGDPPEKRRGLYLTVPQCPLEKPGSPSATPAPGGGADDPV

CCOc1ccc(C=NNc2ccc(S(=O)(=O)Nc3ccccc3C(=O)O)cc2[N+](=O)[O-])cc1
IC50 [1]: 4.41 µM (active) | IC50 [2]: 7.56 µM (active) | IC50 (Beta-galactosidase): > 66.6 µM (inactive) | IC50 [3]: > 66 µM (inactive) | IC50 [4]: 51.3 µM (inactive) | IC50 [5]: 3.67 µM (active) | IC50 [6]: 5.78 µM (active) | IC50 [7]: 15.6 µM (active)

O=C(COc1ccc(Cl)cc1)Nc1nnc(-c2ccc(F)cc2)o1
EC50 [8]: 1.8 µM (active)

CCc1nc(SCC(=O)N2CCN(c3ccccc3)CC2)c2oc3ccccc3c2n1
IC50 (HEK293 [9]): > 20 µM (inactive) | IC50 (HEK293 [10]): 5.63 µM (inactive) | EC50 (Protein RecA): > 380 µM (inactive) | IC50 (HEK293 [11]): 17.7 µM (active) | EC50 (HEK293 [12]): 4.73 µM (active) | EC50 [13]: > 20 µM (inactive) | AC50 [14]: 2 µM (active)

COC(=O)c1ncccc1OCCOc1ccc(Cl)cc1Cl
EC50 [15]: > 50 µM (inactive)

Cc1cc(NC2CCCCC2)nc(NCc2ccccc2)n1
IC50 (cells): 10.7 µM (active) | EC50 [16]: 1.61 µM (active) | CC50 [17]: > 20 µM (active) | AC50 (INS1): 2.83 µM (active) | EC50 [18]: 8.62 µM (active) | CC50 [19]: 16.1 µM (active) | CC50 [20]: 12.9 µM (active)

COC(=O)c1cc(Cl)ccc1NC(=O)c1ccc(OC)cc1
IC50 (Hexokinase): > 25 µM (inactive)

C#CCN(CCCN(C(=O)CCl)c1ccc([N+](=O)[O-])cc1)C(=O)C(F)(F)F
IC50 [21]: 0.023 µM (active)

O=C(c1csc2c1CCCC2)n1cccn1
IC50 (Coagulation factor XII): 5.39 µM (active) | IC50 [22]: > 50 µM (not active)

CC(/C=N/n1c(S)nnc1-c1ccco1)=C\c1ccco1
IC50 [23]: 2.62 µM (active) | IC50 [24]: > 100 µM (inactive)
